Data from ChEMBL document CHEMBL1201862, “PubChem BioAssay data set” (2004).
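Each compound was tested at five concentrations against cells in 96-well plates for 48 hours. GI50 = concentration required for 50% inhibition of growth.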 Activity calls are given as the source filed them. Rule as the data show it: active = GI50 up to about 1.1 µM and inactive = higher.

Legend:
Assay in all cases: inhibition of tumour cell growth, NCI panel, 48 h
[1] = system: SN12C
[2] = system: K562
[3] = system: HOP-62
[4] = system: KM12
[5] = system: SR
[6] = system: UO-31
[7] = system: Malme-3M
[8] = system: RPMI-8226
[9] = system: SF-295
[10] = system: SW-620
[11] = system: SK-MEL-5
[12] = system: UACC-257
[13] = system: SK-OV-3
[14] = system: OVCAR-5
[15] = system: NCI-H522
[16] = system: OVCAR-3
[17] = system: HOP-92
[18] = system: SK-MEL-28

Compound	GI50 [1]	GI50 [2]	GI50 [3]	GI50 [4]	GI50 [5]	GI50 [6]	GI50 [7]	GI50 [8]	GI50 [9]	GI50 [10]	GI50 [11]	GI50 [12]	GI50 [13]	GI50 [14]	GI50 [15]	GI50 [16]	GI50 [17]	GI50 [18]
CC#COS(=O)(=O)c1ccc(C)cc1	> 100 µM (inactive)	36.8 µM (inactive)	> 100 µM (inactive)	59.2 µM (inactive)	33.7 µM (inactive)	57.1 µM (inactive)	88.3 µM (inactive)	23.1 µM (inactive)	> 100 µM (inactive)	42.7 µM (inactive)	37.4 µM (inactive)	47.5 µM (inactive)	84.3 µM (inactive)	> 100 µM (inactive)	49.5 µM (inactive)	60.5 µM (inactive)	–	–
C#CC[N+](CCO)(CCO)CCCCCCCCCCCCCCCCCC	16.4 µM (inactive)	5.24 µM (inactive)	11.4 µM (inactive)	3.55 µM (inactive)	–	15.1 µM (inactive)	18.4 µM (inactive)	3.27 µM (inactive)	7.76 µM (inactive)	15.7 µM (inactive)	15.7 µM (inactive)	15.8 µM (inactive)	17.6 µM (inactive)	14.8 µM (inactive)	6.85 µM (inactive)	13.5 µM (inactive)	2 µM (inactive)	16.5 µM (inactive)
C[N+](C)=c1nc(N2CCOCC2)ss1	> 100 µM (inactive)	> 100 µM (inactive)	> 100 µM (inactive)	> 100 µM (inactive)	> 100 µM (inactive)	> 100 µM (inactive)	–	–	78.2 µM (inactive)	> 100 µM (inactive)	> 100 µM (inactive)	> 100 µM (inactive)	> 100 µM (inactive)	> 100 µM (inactive)	13.7 µM (inactive)	–	> 100 µM (inactive)	> 100 µM (inactive)
CCOc1ccc2nc(NC(=O)C(=O)C(C(=O)c3ccccc3F)C3OC(=O)c4ccccc43)sc2c1 (stereo not given)	16.4 µM (inactive)	21.8 µM (inactive)	23.5 µM (inactive)	0.723 µM (active)	11.7 µM (inactive)	18.4 µM (inactive)	–	19.1 µM (inactive)	–	19.3 µM (inactive)	15.9 µM (inactive)	41.3 µM (inactive)	24.1 µM (inactive)	–	14 µM (inactive)	–	–	24.4 µM (inactive)
[O-][S+]1[C@H](c2ccccc2)c2c(-c3ccccc3)sc(-c3ccccc3)c2[C@@H]1c1ccccc1 (stereo not given in full)	25.3 µM (inactive)	6.44 µM (inactive)	> 100 µM (inactive)	12.5 µM (inactive)	–	65.6 µM (inactive)	23.4 µM (inactive)	6.04 µM (inactive)	> 100 µM (inactive)	13.2 µM (inactive)	6.15 µM (inactive)	> 100 µM (inactive)	> 100 µM (inactive)	3.66 µM (inactive)	3.23 µM (inactive)	> 100 µM (inactive)	2.96 µM (inactive)	96.6 µM (inactive)
CCOC(=O)C1=C(O)C(=O)c2ccoc2C1=O	> 100 µM (inactive)	> 100 µM (inactive)	> 100 µM (inactive)	> 100 µM (inactive)	> 100 µM (inactive)	> 100 µM (inactive)	> 100 µM (inactive)	> 100 µM (inactive)	> 100 µM (inactive)	> 100 µM (inactive)	> 100 µM (inactive)	> 100 µM (inactive)	> 100 µM (inactive)	> 100 µM (inactive)	> 100 µM (inactive)	> 100 µM (inactive)	> 100 µM (inactive)	> 100 µM (inactive)
O=C1C2=C(c3ccccc31)C(c1ccccc1Cl)N1C(=O)CSC1=N2 (stereo not given)	> 100 µM (inactive)	50.4 µM (inactive)	> 100 µM (inactive)	> 100 µM (inactive)	–	54 µM (inactive)	> 100 µM (inactive)	39.8 µM (inactive)	83.4 µM (inactive)	> 100 µM (inactive)	> 100 µM (inactive)	> 100 µM (inactive)	> 100 µM (inactive)	> 100 µM (inactive)	23.8 µM (inactive)	87.3 µM (inactive)	32.5 µM (inactive)	49.3 µM (inactive)
Cc1ccc(S(=O)(=O)C2=c3nc4ccccc4cc3=C3C(=O)c4ccccc4C(=O)C32)cc1 (stereo not given)	> 100 µM (inactive)	> 100 µM (inactive)	> 100 µM (inactive)	> 100 µM (inactive)	> 100 µM (inactive)	> 100 µM (inactive)	> 100 µM (inactive)	> 100 µM (inactive)	–	> 100 µM (inactive)	63.2 µM (inactive)	> 100 µM (inactive)	0.394 µM (active)	> 100 µM (inactive)	> 100 µM (inactive)	> 100 µM (inactive)	> 100 µM (inactive)	> 100 µM (inactive)
